Test results reported in patent publication US20080280837A1, “Biologically Active Compounds with Anti-Angiogenic Properties” (priority 2004, published 2008).
Counter-ions that a name gives are not always drawn.

Key:
HUVEC tube formation = test: Matrigel tube formation assay; type: cell-based, human; conditions: 22 hrs, 50% inhibition of tube formation
Procedure: HUVEC (Clonetics) were plated in 96 well plates in EGM-2 media (Clonetics) at 2.5 to 3×10^4 cells per well. Cells of less than 6 passages were used in all studies. Wells were precoated with 50 μL growth factor containing Matrigel (Becton Dickinson). HUVEC were allowed to form tubes by incubation at 37° C. in 5% CO2 for 22 hrs. In test wells compound was added in the desired concentration. Photographic images of the wells ×4 magnification were used to determine size of the tubes, length of tubes and number of junctions using image analysis software.

[1] = system: Human Umbilical Vein Endothelial Cells (HUVEC); test: Endothelial cell proliferation assay (MTS); type: cell-based; conditions: 48 hrs
Procedure: Human Umbilical Vein Endothelial Cells (HUVEC from Clonetics) were plated in 96 well plates at 1000 cell per well in EGM-2 medium (Clonetics). Cells were grown overnight at 37° C. in 5% CO2. Fresh EGM-2 medium containing compound at the desired concentration was added to the wells and the cells allowed to grow for a further 48 hrs. A MTS (Promega) colorimetric assay was performed after 48 hrs to determine cell growth according to the manufacturers instructions. Results are presented in terms of percentage growth.

SSTR-3 = target: T1, SSTR-3 (Homo sapiens, UniProt P32745); test: Radioligand binding screen against somatostatin subtype SSTR-3; conditions: Table 8; for Ki: read-out: Ki SSTR3; for IC50: shown where Ki could not be determined (NoModel), read-out: IC50 SSTR3 (in parentheses)
T1 construct: expressed in transfected cells
T1 sequence (P32745 whole entry): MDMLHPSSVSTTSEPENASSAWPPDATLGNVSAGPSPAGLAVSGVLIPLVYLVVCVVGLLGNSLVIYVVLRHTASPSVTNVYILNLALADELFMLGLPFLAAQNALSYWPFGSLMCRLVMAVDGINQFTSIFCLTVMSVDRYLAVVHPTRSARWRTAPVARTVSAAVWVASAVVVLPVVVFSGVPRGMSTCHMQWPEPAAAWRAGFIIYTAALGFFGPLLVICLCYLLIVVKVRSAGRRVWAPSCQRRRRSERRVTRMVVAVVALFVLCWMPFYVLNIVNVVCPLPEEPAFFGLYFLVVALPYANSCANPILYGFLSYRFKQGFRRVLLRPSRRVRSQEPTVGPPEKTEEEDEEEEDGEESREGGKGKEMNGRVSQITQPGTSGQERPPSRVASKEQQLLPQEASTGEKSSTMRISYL
Procedure: (§1) Receptor membrane preparations containing the desired cloned receptor (for example cloned human somatostatin receptor subtype 5, SSTR5) and radio-labeled ligand (for example 3-[^125I]iodotyrosyl^11 Somatostatin-14)) were diluted at the concentration required for testing and according to the specific parameters associated with the selected receptor-ligand combination, including receptor Bmax, ligand Kd and any other parameters necessary to optimize the experimental conditions. When tested for competition activity to the reference ligand, “compound 1” was mixed with membrane suspension and the radiolabeled reference ligand (with or without an excess of cold ligand to the receptor for determination of non-specific binding) and incubated at the temperature required by internal standard operating procedures. Following incubation, the binding reaction was stopped by the addition of ice-cold washing buffer and filtered on appropriate filters, which are then counted. Data analysis and curve-fitting was performed with XLfit (IDBS).
(§2) 10 mM solutions of test compounds in 100% DMSO were prepared. ˜160 μl was used for each dilution (20 μl/well in triplicate).
(§3) A 1.25 mM assay stock was prepared by making a 1:8 dilution of the 10 mM solution. (To 30 μL of the 10 mM solution was added 210 μL milli-Q H2O. A 1:5 dilution series in milli-Q H2O was then prepared.
(§4) In primary screening experiments compounds were tested in duplicate for a particular concentration.

SSTR-1 = target: T2, SSTR-1 (Homo sapiens, UniProt P30872); test: Radioligand binding screen against somatostatin subtype SSTR-1; conditions: Table 8; read-out: Ki SSTR1
T2 construct: expressed in transfected cells
T2 sequence (P30872 whole entry, species assumed): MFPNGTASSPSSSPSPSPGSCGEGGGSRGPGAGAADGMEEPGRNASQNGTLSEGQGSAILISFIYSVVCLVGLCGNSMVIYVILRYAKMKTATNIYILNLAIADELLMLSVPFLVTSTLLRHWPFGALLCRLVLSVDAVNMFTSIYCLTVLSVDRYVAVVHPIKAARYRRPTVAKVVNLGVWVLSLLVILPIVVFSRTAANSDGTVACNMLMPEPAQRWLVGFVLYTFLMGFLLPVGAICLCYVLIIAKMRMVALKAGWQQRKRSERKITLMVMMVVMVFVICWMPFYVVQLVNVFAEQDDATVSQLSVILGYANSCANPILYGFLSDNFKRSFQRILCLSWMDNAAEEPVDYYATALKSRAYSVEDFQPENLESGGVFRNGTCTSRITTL
Procedure: as §1, §2, §3, §4

SSTR-4 = target: T3, SSTR-4 (Homo sapiens, UniProt P31391); test: Radioligand binding screen against somatostatin subtype SSTR-4 (SST4 assay); conditions: Table 8; read-out: Ki SSTR4
T3 construct: expressed in transfected cells
T3 sequence (P31391 whole entry): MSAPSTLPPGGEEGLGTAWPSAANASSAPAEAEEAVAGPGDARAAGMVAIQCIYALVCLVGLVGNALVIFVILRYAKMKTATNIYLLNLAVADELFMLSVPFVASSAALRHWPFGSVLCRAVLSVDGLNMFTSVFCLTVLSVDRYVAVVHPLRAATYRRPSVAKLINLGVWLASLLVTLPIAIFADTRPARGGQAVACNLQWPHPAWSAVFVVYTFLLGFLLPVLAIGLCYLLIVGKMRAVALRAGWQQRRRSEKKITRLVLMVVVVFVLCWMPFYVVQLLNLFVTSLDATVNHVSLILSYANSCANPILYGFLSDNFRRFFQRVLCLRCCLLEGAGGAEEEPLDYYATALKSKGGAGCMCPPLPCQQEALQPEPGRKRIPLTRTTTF
Procedure: as §1, §2, §3
Assays were performed in triplicate at each concentration within the 1:5 dilution series: 250 μM, 50 μM, 10 μM, […], 0.4 μM, 0.08 μM, 0.016 μM, 0.0032 μM, etc. (for SST4 assay) and 125 μM, 10 μM, 2 μM, 1 μM, 0.5 μM, etc (for SST5 assay).
as §4

[2] = target: T4, Human SST5 somatostatin receptor (SSTR5) (Homo sapiens, UniProt P35346); test: Filter plate assay for SST5 receptor, displacement of [125I]SST-14; type: binding; conditions: Table 8; for IC50: shown where Ki could not be determined (NoModel), read-out: IC50 SSTR5 (in parentheses)
T4 construct: expressed in transfected cells; host or cells: HEK-293 EBNA
T4 sequence (P35346 whole entry): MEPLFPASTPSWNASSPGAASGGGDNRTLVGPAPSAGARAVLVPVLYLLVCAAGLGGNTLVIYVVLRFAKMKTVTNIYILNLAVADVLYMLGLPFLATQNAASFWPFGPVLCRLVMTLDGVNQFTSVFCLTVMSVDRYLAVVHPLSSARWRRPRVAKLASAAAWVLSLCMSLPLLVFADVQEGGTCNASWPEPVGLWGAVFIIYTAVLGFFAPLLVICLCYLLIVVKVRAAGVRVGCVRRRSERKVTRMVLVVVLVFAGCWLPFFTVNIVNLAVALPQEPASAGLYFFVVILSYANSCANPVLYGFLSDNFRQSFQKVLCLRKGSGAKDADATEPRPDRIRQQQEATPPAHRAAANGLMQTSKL
Outline: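 HEK-293 EBNA membranes expressing human SST5 (5.5 μg) incubated 60 min at 25 °C with 4 nM [125I]SST-14 and compound in pH 7.5 Tris/EGTA/MgCl2/sucrose buffer. Bound radioactivity collected on PEI-coated glass fiber filters and counted; triplicate 1:5 dilution series from 125 μM, non-specific binding with excess cold ligand.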

SSTR-2 = target: T5, SSTR-2 (Homo sapiens, UniProt P30874); test: Radioligand binding screen against somatostatin subtype SSTR-2; conditions: Table 8; for Ki: read-out: Ki SSTR2
T5 construct: expressed in transfected cells
T5 sequence (P30874 whole entry): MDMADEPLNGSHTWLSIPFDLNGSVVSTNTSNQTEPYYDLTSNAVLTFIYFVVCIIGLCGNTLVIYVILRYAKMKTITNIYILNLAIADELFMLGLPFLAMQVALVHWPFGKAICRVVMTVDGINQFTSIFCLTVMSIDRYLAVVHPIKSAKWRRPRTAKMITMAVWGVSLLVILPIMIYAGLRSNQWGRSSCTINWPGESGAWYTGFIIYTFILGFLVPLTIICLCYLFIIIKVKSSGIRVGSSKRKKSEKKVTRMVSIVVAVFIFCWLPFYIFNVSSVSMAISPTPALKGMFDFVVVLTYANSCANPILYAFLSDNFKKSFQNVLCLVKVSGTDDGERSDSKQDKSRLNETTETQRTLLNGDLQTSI
Procedure: as §1, §2, §3, §4

[3] = system: chicken embryo chorioallantoic membrane (CAM) vasculature; test: Early chicken embryo chorioallantoic membrane (earlyCAM) assay; type: in vivo; conditions: dose of 10 nmol
Procedure: Vein diameter was included as a measure of vessel growth. Where there was more than one major vein branch, the diameters of both were added together to give a total vein diameter. In the control CAM there were two well developed vein branches of similar diameter. In contrast, in the treated CAM there was a single major vein branch. Total vein diameter is 239 pixels in the control CAM, and only 107 pixels in the treated CAM.
When “compound 1” was applied to the CAM, there were dose responsive reductions in CAM growth and vasculature. The effects on CAM growth and vessel parameters were expressed as pixel measures (Table 1) and also as a percentage of the vehicle treated control group (FIG. 1). Vein lengths were reduced at all dose levels of “compound 1”, both in pixel and percentage terms, with a reduction to 67% of control at 5 nmol (p<0.05). […] When artery and vein lengths were combined to give total vessel length there was a significant reduction at the 5 nmol level (FIG. 1; p<0.05). A strong trend to reduced CAM growth with increasing doses of “compound 1” was also present.

[4] = Solubility of salts of compound 1; type: physicochemical; conditions: for Solubility in Water: overnight

| Compound | Ki (SSTR-3) | Ki (SSTR-1) | Ki (SSTR-4) | Ki [2] | Ki (SSTR-2) | Percent cell growth at 125 µM [1] | Percent cell growth at 250 µM [1] | other results |
| --- | --- | --- | --- | --- | --- | --- | --- | --- |
| COCC1OC(OCc2ccc(Cl)cc2)C(NC(=O)CCN)C(OCc2ccc3ccccc3c2)C1O (stereo not drawn) [3 alpha] | – | – | – | – | – | – | – | EC50 (HUVEC tube formation): 45000 nM |
| COCC1OC(OCc2ccc3ccccc3c2)C(NC(=O)CCN)C(OCc2ccc3ccccc3c2)C1O (stereo not drawn) [16 alpha] | – | – | – | – | – | – | – | EC50 (HUVEC tube formation): 55000 nM |
| COC[C@H]1OC(OCc2ccc(Cl)cc2)[C@H](NC(=O)CCCN=C(N)N)[C@H](OCc2ccc3ccccc3c2)[C@@H]1O (stereo partly drawn) [Compound 4] | 188 nM | 1590 nM | 1420 nM | 530 nM | 842 nM | -98% | -90% | – |
| COC[C@H]1OC(OCc2ccc(Cl)cc2)[C@H](NC(=O)CCCN=C(N)N)[C@H](OCc2ccc(Cl)cc2)[C@@H]1O (stereo partly drawn) [Compound 2] | 203 nM | 2280 nM | 3260 nM | 353 nM | 728 nM | -83% | -91% | – |
| COCC1OC(OCc2ccc3ccccc3c2)C(NC(=O)CCN)C(OCc2ccc(Cl)cc2)C1O (stereo not drawn) [7 alpha] | – | – | – | – | – | – | – | EC50 (HUVEC tube formation): 50000 nM |
| COCC1OC(OCc2ccc(Cl)cc2)C(NC(=O)CCN)C(OCc2ccc3ccccc3c2)C1O (stereo not drawn) [3 beta] | – | – | – | – | – | – | – | EC50 (HUVEC tube formation): 90000 nM |
| COC[C@H]1OC(OCc2ccc3ccccc3c2)[C@H](NC(=O)CCN)[C@H](OCc2ccc(Cl)cc2)[C@@H]1O (stereo partly drawn) [Compound 7] | 131 nM | 6090 nM | 9130 nM | 22 nM | 498 nM | -81% | -63% | – |
| COC[C@H]1OC(OCc2ccc3ccccc3c2)[C@H](NC(=O)CCN)[C@H](OCc2ccc3ccccc3c2)[C@@H]1O (stereo partly drawn) [Compound 16] | 441 nM | 2370 nM | 4380 nM | 85 nM | 860 nM | – | – | – |
| CO[C@H]1[C@H](O)[C@@H](COCc2ccc3ccccc3c2)OC(OCc2ccc(Cl)cc2)[C@@H]1NC(=O)C1CCCN(C(=N)N)C1 (stereo partly drawn) [Compound 14] | 340 nM | > 10000 nM | > 10000 nM | 549 nM | 1210 nM | -95% | -90% | – |
| octeotride [reference compound] | – | – | – | – | – | – | – | Effect on the CAM vasculature [3]: did not appear to have any significant effect |
| COC[C@H]1OC(OCc2ccc(Cl)cc2)[C@H](NC(=O)CCN)[C@H](OCc2ccc3ccccc3c2)[C@@H]1O (stereo partly drawn) [Compound 3] | – | 3730 nM | 4580 nM | – | 1230 nM | -75% | -39% | IC50 (SSTR-3): 127 nM; IC50 [2]: 147 nM |
| COCC1OC(OCc2ccc3ccccc3c2)C(NC(=O)CCN)C(OCc2ccc(Cl)cc2)C1O (stereo not drawn) [7 beta] | – | – | – | – | – | – | – | EC50 (HUVEC tube formation): 95000 nM |
| COC[C@H]1O[C@H](OCCc2ccccc2)[C@H](NC(=O)CCCN)[C@@H](OCc2ccc3ccccc3c2)[C@@H]1O [TFA] | – | – | – | – | – | – | – | Solubility in 5% Glucose ([4]; 5% Glucose, Day 3): 5270 µg/mL; Solubility in Water [4]: 3640 µg/mL |
| COC[C@H]1O[C@H](OCCc2ccccc2)[C@H](NC(=O)CCCN)[C@@H](OCc2ccc3ccccc3c2)[C@@H]1O [Succinate] | – | – | – | – | – | – | – | Solubility in 5% Glucose ([4]; 5% Glucose, Day 3): 4980 µg/mL; Solubility in Water [4]: 8520 µg/mL |
| COC[C@H]1O[C@H](OCCc2ccccc2)[C@H](NC(=O)CCCN)[C@@H](OCc2ccc3ccccc3c2)[C@@H]1O [Citrate] | – | – | – | – | – | – | – | Solubility in Water [4]: 4540 µg/mL |
| COC1C(O)C(COCc2ccc3ccccc3c2)OC(OCc2ccc(Cl)cc2)C1NC(=O)C1CCCN(C(=N)N)C1 (mixture of isomers) [14 mixture] | – | – | – | – | – | – | – | EC50 (HUVEC tube formation): 155000 nM |
| COC[C@H]1O[C@@H](OCc2ccc3ccccc3c2)[C@H](NC(=O)CCN=C(N)N)[C@H](OCc2ccc3ccccc3c2)[C@@H]1O [Compound 8] | 599 nM | 3090 nM | 2770 nM | 598 nM | 2010 nM | 66% | -18% | – |
| COC[C@H]1O[C@H](OCCc2ccccc2)[C@H](NC(=O)CCCN)[C@@H](OCc2ccc3ccccc3c2)[C@@H]1O [Hydrochloride] | – | – | – | – | – | – | – | solubility at 3 day ([4]; 5% glucose, saline or isotonic, 5% Glucose, Day 3): 6300 µg/mL; Solubility in Water [4]: 7870 µg/mL |
| COC[C@H]1O[C@H](OCCc2ccccc2)[C@H](NC(=O)CCCN)[C@@H](OCc2ccc3ccccc3c2)[C@@H]1O [Methanesulphonate] | – | – | – | – | – | – | – | Solubility in Water [4]: 5170 µg/mL |
| COC[C@H]1O[C@H](OCc2ccc3ccccc3c2)[C@H](NC(=O)CCN)[C@H](OCc2ccc3ccccc3c2)[C@@H]1O [Compound 15] | 792 nM | 1960 nM | 2260 nM | 73 nM | 1040 nM | -78% | -67% | – |
| COC[C@H]1O[C@H](OCCc2ccccc2)[C@H](NC(=O)CCCN)[C@@H](OCc2ccc3ccccc3c2)[C@@H]1O [Acetate] | – | – | – | – | – | – | – | Solubility in Water [4]: 6960 µg/mL |

The next lines start with results.

| Ki (SSTR-3) | Ki (SSTR-1) | Ki (SSTR-4) | Ki [2] | Ki (SSTR-2) | Compound | Percent cell growth at 125 µM [1] | Percent cell growth at 250 µM [1] | other results |
| --- | --- | --- | --- | --- | --- | --- | --- | --- |
| – | 9220 nM | 3980 nM | – | 4850 nM | COC[C@H]1OC(OCc2ccc3ccccc3c2)[C@H](NC(=O)CCCN)[C@@H](OCc2ccc3ccccc3c2)[C@@H]1O (stereo partly drawn) [Compound 11] | 29% | -53% | IC50 (SSTR-3): 2 nM; IC50 [2]: 3 nM |
| – | > 10000 nM | > 10000 nM | 151 nM | – | COC[C@H]1OC(OCc2ccc3ccccc3c2)[C@H](NC(=O)CCN)[C@H](OCc2ccccc2)[C@@H]1O (stereo partly drawn) [Compound 6] | 24% | -78% | IC50 (SSTR-3): 206 nM; IC50 (SSTR-2; shown where Ki could not be determined (NoModel), read-out: IC50 SSTR2 (in parentheses)): 29200 nM |
| – | > 10000 nM | > 10000 nM | 46 nM | 5060 nM | COC[C@H]1O[C@@H](OCc2ccc3ccccc3c2)[C@H](NC(=O)CCCN)[C@@H](OCc2ccc(Cl)cc2)[C@@H]1O [Compound 12] | -95% | -71% | IC50 (SSTR-3): 429 nM |
| – | > 10000 nM | > 10000 nM | 62 nM | > 10000 nM | COC[C@H]1O[C@H](OCc2ccc3ccccc3c2)[C@H](NC(=O)CCCN)[C@@H](OCc2ccc(Cl)cc2)[C@@H]1O [Compound 13] | 58% | -80% | IC50 (SSTR-3): 476 nM |
| 285 nM | 2550 nM | 8540 nM | 153 nM | 1570 nM | COC[C@H]1OC(OCCc2ccccc2)[C@H](NC(=O)CCN)[C@H](OCc2ccc3ccccc3c2)[C@@H]1O (stereo partly drawn) [Compound 5] | -89% | -57% | – |
